Source: patent US20240360157A1, “TYK2 INHIBITORS” (BIOGEN MA INC., priority 2021, published 2024)

Columns and labels:
Assay type in all cases: biochemical
[1] = target: human JAK3 catalytic kinase (JH1) domain (Homo sapiens (Human), UniProt P52333); experiment: ADP-Glo Kinase Assay, recombinant JAK3 catalytic kinase (JH1) domain; conditions: recombinant JH1 domain 0.3 nM, 4 μM ATP, JAK3-974 peptide, mean, read-out: JAK3 biochem IC50 (nM) Mean
Outline: (§1)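 Compounds were titrated in 11 points of 3-fold dilution starting at 10 μM or 1 μM. Enzyme (JAK1 4 nM, JAK2 0.2 nM, JAK3 0.3 nM, TYK2 2 nM) and 50 μM peptide reacted for 100 minutes, followed by ADP-to-luminescence detection; IC50 by 4-parameter fit.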

[2] = target: human JAK1 catalytic kinase (JH1) domain (Homo sapiens (Human), UniProt P23458); experiment: ADP-Glo Kinase Assay, recombinant JAK1 catalytic kinase (JH1) domain; conditions: recombinant JH1 domain 4 nM, 35 μM ATP, JAK3-342 peptide, mean, read-out: JAK1 biochem IC50 (nM) Mean
human JAK1 catalytic kinase (JH1) domain, sequence (P23458 875-1153): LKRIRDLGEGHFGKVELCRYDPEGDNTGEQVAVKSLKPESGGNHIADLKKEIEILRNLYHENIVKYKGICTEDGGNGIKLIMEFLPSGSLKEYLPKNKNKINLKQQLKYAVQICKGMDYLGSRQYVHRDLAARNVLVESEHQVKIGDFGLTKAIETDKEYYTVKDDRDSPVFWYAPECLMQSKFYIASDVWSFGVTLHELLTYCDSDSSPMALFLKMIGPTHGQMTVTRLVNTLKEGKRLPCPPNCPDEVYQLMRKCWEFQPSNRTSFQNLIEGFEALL
Outline: as §1

[3] = target: human JAK2 catalytic kinase (JH1) domain (Homo sapiens (Human), UniProt O60674); experiment: ADP-Glo Kinase Assay, recombinant JAK2 catalytic kinase (JH1) domain; conditions: recombinant JH1 domain 0.2 nM, 15 μM ATP, JAK3-974 peptide, mean, read-out: JAK2 biochem IC50 (nM) Mean
human JAK2 catalytic kinase (JH1) domain, sequence (O60674 849-1124): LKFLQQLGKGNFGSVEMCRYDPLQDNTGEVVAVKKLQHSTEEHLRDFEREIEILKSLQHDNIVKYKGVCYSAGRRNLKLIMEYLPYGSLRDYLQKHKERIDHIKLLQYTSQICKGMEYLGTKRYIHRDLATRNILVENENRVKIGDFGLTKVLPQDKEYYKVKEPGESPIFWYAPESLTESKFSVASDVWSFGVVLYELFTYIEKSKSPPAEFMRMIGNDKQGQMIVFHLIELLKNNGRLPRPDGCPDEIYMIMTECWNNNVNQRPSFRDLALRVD
Outline: as §1

[4] = target: human TYK2 catalytic kinase (JH1) domain (Homo sapiens (Human), UniProt P29597); experiment: ADP-Glo Kinase Assay, recombinant TYK2 catalytic kinase (JH1) domain; conditions: recombinant JH1 domain 2 nM, 10 μM ATP, JAK3-974 peptide, mean, read-out: TYK2 biochem IC50 (nM) Mean
human TYK2 catalytic kinase (JH1) domain, sequence (P29597 897-1176): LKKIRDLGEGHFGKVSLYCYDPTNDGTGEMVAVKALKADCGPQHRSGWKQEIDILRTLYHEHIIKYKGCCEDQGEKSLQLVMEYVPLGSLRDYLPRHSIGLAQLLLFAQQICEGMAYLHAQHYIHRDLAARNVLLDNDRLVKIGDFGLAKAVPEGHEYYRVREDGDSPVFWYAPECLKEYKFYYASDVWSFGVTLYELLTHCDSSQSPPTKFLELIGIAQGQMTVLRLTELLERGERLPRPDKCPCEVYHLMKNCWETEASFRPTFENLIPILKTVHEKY
Outline: as §1

human JAK3 catalytic kinase (JH1) domain, sequence (P52333 822-1111): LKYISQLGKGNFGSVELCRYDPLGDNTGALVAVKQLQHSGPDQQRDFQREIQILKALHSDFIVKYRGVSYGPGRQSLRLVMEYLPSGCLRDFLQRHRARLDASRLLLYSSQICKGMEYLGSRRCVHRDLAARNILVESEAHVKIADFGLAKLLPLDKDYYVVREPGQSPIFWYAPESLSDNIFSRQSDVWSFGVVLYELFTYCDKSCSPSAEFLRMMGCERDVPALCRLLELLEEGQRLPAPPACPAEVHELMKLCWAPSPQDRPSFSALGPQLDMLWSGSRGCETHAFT

Compound	IC50 [1]	IC50 [2]	IC50 [3]	IC50 [4]
Cc1cc(-c2cc3c(N4CC5CCC(C4)N5C(=O)[C@@H]4C[C@H]4F)ncnn3c2)ccn1 [Example 91, ((1S,2R)-2-fluorocyclopropyl)(3-(6-(2-methylpyridin-4-yl)pyrrolo[2,1-f][1,2,4]triazin-4-yl)-3,8-diazabicyclo[3.2.1]octan-8-yl)methanone]	4500 nM	316 nM	624 nM	21.8 nM
COc1nn(C)cc1-c1cc2c(N3CC4CCC(C3)N4C(=O)[C@@H]3C[C@H]3F)ncnn2c1 [Example 98, ((1S,2R)-2-fluorocyclopropyl)(3-(6-(3-methoxy-1-methyl-1H-pyrazol-4-yl)pyrrolo[2,1-f][1,2,4]triazin-4-yl)-3,8-diazabicyclo[3.2.1]octan-8-yl)methanone]	1640 nM	672 nM	216 nM	9.8 nM
O=C([C@@H]1C[C@H]1F)N1C2CCC1CN(c1ncnc3[nH]c(-c4cnn(C(F)F)c4)cc13)C2 [Example 221, (3-(6-(1-(difluoromethyl)-1H-pyrazol-4-yl)-7H-pyrrolo[2,3-d]pyrimidin-4-yl)-3,8-diazabicyclo[3.2.1]octan-8-yl)((1S,2R)-2-fluorocyclopropyl)methanone]	461 nM	82 nM	73 nM	2.8 nM
COc1nccc(-c2cc3c(N4CC5CCC(C4)N5C(=O)[C@@H]4C[C@H]4F)ccnn3c2)c1F [Example 26, (3-(6-(3-fluoro-2-methoxypyridin-4-yl)pyrrolo[1,2-b]pyridazin-4-yl)-3,8-diazabicyclo[3.2.1]octan-8-yl)((1S,2R)-2-fluorocyclopropyl)methanone]	1190 nM	292 nM	145 nM	9.8 nM
Cn1cc(-c2cc3c(N4CC5CCC(C4)N5C(=O)[C@H]4C[C@@H]4F)ncnn3c2)cn1 [Example 6, ((1R,2S)-2-fluorocyclopropyl)(3-(6-(1-methyl-1H-pyrazol-4-yl)pyrrolo[2,1-f][1,2,4]triazin-4-yl)-3,8-diazabicyclo[3.2.1]octan-8-yl)methanone]	827 nM	682 nM	2260 nM	133 nM
Cn1cc(-c2nc3c(N4CC5CCC(C4)N5C(=O)[C@@H]4C[C@H]4F)ccnc3[nH]2)cn1 [Example 200, ((1S,2R)-2-fluorocyclopropyl)(3-(2-(1-methyl-1H-pyrazol-4-yl)-3H-imidazo[4,5-b]pyridin-7-yl)-3,8-diazabicyclo[3.2.1]octan-8-yl)methanone]	78 nM	9 nM	6 nM	0.4 nM
Cn1cc(-c2cc3c(N4CC5CCC(C4)N5C(=O)C4CC(F)C4)ncnn3c2)cn1 (stereo not shown) [Example 69, (3-fluorocyclobutyl)(3-(6-(1-methyl-1H-pyrazol-4-yl)pyrrolo[2,1-f][1,2,4]triazin-4-yl)-3,8-diazabicyclo[3.2.1]octan-8-yl)methanone]	9720 nM	6660 nM	10000 nM	694 nM
O=C([C@@H]1C[C@H]1F)N1C2CCC1CN(c1ccnn3cc(-c4ccnc(N5CC(F)(F)C5)c4)cc13)C2 [Example 120, (3-(6-(2-(3,3-difluoroazetidin-1-yl)pyridin-4-yl)pyrrolo[1,2-b]pyridazin-4-yl)-3,8-diazabicyclo[3.2.1]octan-8-yl)((1S,2R)-2-fluorocyclopropyl)methanone]	10000 nM	1650 nM	636 nM	85.2 nM
Cn1cc(-c2cc3c(N4CC5CCC(C4)N5C(=O)[C@@H]4C[C@H]4F)ccnn3c2)c(F)n1 [Example 118, (3-(6-(3-fluoro-1-methyl-1H-pyrazol-4-yl)pyrrolo[1,2-b]pyridazin-4-yl)-3,8-diazabicyclo[3.2.1]octan-8-yl)((1S,2R)-2-fluorocyclopropyl)methanone]	502 nM	92 nM	28 nM	1.8 nM
O=C(C1CC1)N1C2CCC1CN(c1ncnn3cc(-c4ccncc4)cc13)C2 [Example 181]	5520 nM	1040 nM	7860 nM	229 nM
O=S(=O)(C1CC1)N1C2CCC1CN(c1ncnn3cc(-c4cnn(C(F)F)c4)cc13)C2 [Example 188, 4-(8-(cyclopropylsulfonyl)-3,8-diazabicyclo[3.2.1]octan-3-yl)-6-(1-(difluoromethyl)-1H-pyrazol-4-yl)pyrrolo[2,1-f][1,2,4]triazine]	9390 nM	9740 nM	5890 nM	615 nM
Cc1ccc(-c2cc3c(N4CC5CCC(C4)N5C(=O)[C@@H]4C[C@H]4F)ccnn3c2)nn1 [Example 125, ((1S,2R)-2-fluorocyclopropyl)(3-(6-(6-methylpyridazin-3-yl)pyrrolo[1,2-b]pyridazin-4-yl)-3,8-diazabicyclo[3.2.1]octan-8-yl)methanone]	1010 nM	236 nM	49 nM	8.8 nM
O=C([C@@H]1C[C@H]1F)N1C2CCC1CN(c1ccnn3cc(-c4ccc(OC(F)F)nc4)cc13)C2 [Example 115, (3-(6-(6-(difluoromethoxy)pyridin-3-yl)pyrrolo[1,2-b]pyridazin-4-yl)-3,8-diazabicyclo[3.2.1]octan-8-yl)((1S,2R)-2-fluorocyclopropyl)methanone]	961 nM	105 nM	82 nM	6 nM
N#Cc1cc(-c2cc3c(N4CC5CCC(C4)N5C(=O)[C@@H]4C[C@H]4F)ncnc3[nH]2)ccn1 [Example 233, 4-(4-(8-((1S,2R)-2-fluorocyclopropane-1-carbonyl)-3,8-diazabicyclo[3.2.1]octan-3-yl)-7H-pyrrolo[2,3-d]pyrimidin-6-yl)picolinonitrile]	3240 nM	174 nM	248 nM	15.4 nM
Cn1cc(-c2cc3c(N4CC5CCC(C4)N5C(=O)[C@@H]4C[C@H]4F)ncnn3c2)ccc1=O [Example 165]	4140 nM	478 nM	902 nM	40.3 nM
O=C(C1CC1)N1C2CCC1CN(c1ncnn3cc(-c4ccccc4)cc13)C2 [Example 177]	4670 nM	1230 nM	10000 nM	300 nM
Cn1cc(-c2cc3nccc(N4CC5CCC(C4)N5C(=O)[C@@H]4C[C@H]4F)n3n2)cn1 [Example 251, ((1S,2R)-2-fluorocyclopropyl)(3-(2-(1-methyl-1H-pyrazol-4-yl)pyrazolo[1,5-a]pyrimidin-7-yl)-3,8-diazabicyclo[3.2.1]octan-8-yl)methanone]	2920 nM	322 nM	472 nM	81 nM
Cn1cc(-c2cc3c(N4CC5CCC(C4)N5C(=O)[C@@H]4CC4(F)F)ccnn3c2)cn1 [Example 22, ((S)-2,2-difluorocyclopropyl)(3-(6-(1-methyl-1H-pyrazol-4-yl)pyrrolo[1,2-b]pyridazin-4-yl)-3,8-diazabicyclo[3.2.1]octan-8-yl)methanone]	445 nM	55 nM	32 nM	1.8 nM
Cn1cc(-c2cc3c(N4CC5CCC(C4)N5C(=O)[C@@H]4C[C@H]4F)ccnn3c2)cc(F)c1=O [Example 174]	1600 nM	149 nM	84 nM	6.6 nM
